Laboratory results as given in ChEMBL document CHEMBL4049411, “Rational Design, Synthesis, and Biological Evaluation of Heterocyclic Quinolones Targeting the Respiratory Chain of Mycobacterium tuberculosis” (J Med Chem, 2017).

Columns and labels:
Rattus norvegicus [1] = experiment: AUC in Wistar rat assessed as 2-(4-(3,3-Difluoropyrrolidin-1-yl)phenyl)-5,7-difluoro-3-methylquinolin-4(1H)-one at 10 mg/kg administered via oral gavage after 24 hrs by LC-MS/MS analysis; format: ADME, organism-based; design: dose 10 mg/kg, time < 24 hr, route oral; details: in vivo
[2] = Drug metabolism in Sprague-Dawley rat assessed as M2 metabolite formation in bile at 50 mg/kg, po via gavage up to 9 hrs by HPLC analysis; format: ADME, organism-based; details: in vivo
[3] = Prodrug activation in Sprague-Dawley rat assessed as 2-(4-(3,3-difluoropyrrolidin-1-yl)phenyl)-5,7-difluoro-3-methylquinolin-4(1H)-one formation in bile at 50 mg/kg, po via gavage up to 9 hrs by HPLC analysis; format: organism-based; details: in vivo
Rattus norvegicus [4] = experiment: Cmax in Wistar rat assessed as 2-(4-(3,3-Difluoropyrrolidin-1-yl)phenyl)-5,7-difluoro-3-methylquinolin-4(1H)-one at 10 mg/kg administered via oral gavage after 24 hrs by LC-MS/MS analysis; format: ADME, organism-based; design: dose 10 mg/kg, route oral; details: in vivo
Rattus norvegicus [5] = experiment: Cmax in Wistar rat assessed as 2-(4-(3,3-Difluoropyrrolidin-1-yl)phenyl)-5,7-difluoro-3-methylquinolin-4(1H)-one at 50 mg/kg administered via oral gavage after 24 hrs by LC-MS/MS analysis; format: ADME, organism-based; design: dose 50 mg/kg, route oral; details: in vivo
Rattus norvegicus [6] = experiment: AUC in Wistar rat assessed as 2-(4-(3,3-Difluoropyrrolidin-1-yl)phenyl)-5,7-difluoro-3-methylquinolin-4(1H)-one at 50 mg/kg administered via oral gavage after 24 hrs by LC-MS/MS analysis; format: ADME, organism-based; design: dose 50 mg/kg, time < 24 hr, route oral; details: in vivo
Rattus norvegicus [7] = experiment: AUC in Wistar rat assessed as 2-(4-(3,3-Difluoropyrrolidin-1-yl)phenyl)-5,7-difluoro-3-methylquinolin-4(1H)-one at 0.5 mg/kg, iv after 24 hrs by LC-MS/MS analysis; format: ADME, organism-based; design: time < 24 hr, dose 0.5 mg/kg, route intravenous; details: in vivo
[8] = Oral bioavailability in Wistar rat at 10 mg/kg administered via gavage after 24 hrs by LC-MS/MS analysis; format: ADME, organism-based; details: in vivo
Rattus norvegicus [9] = experiment: Half life in Wistar rat assessed as 2-(4-(3,3-Difluoropyrrolidin-1-yl)phenyl)-5,7-difluoro-3-methylquinolin-4(1H)-one at 50 mg/kg administered via oral gavage after 24 hrs by LC-MS/MS analysis; format: ADME, organism-based; details: in vivo
[10] = Oral bioavailability in Wistar rat at 50 mg/kg administered via gavage after 24 hrs by LC-MS/MS analysis; format: ADME, organism-based; details: in vivo
[11] = Drug metabolism in Sprague-Dawley rat assessed as M1 metabolite formation in bile at 50 mg/kg, po via gavage up to 9 hrs by HPLC analysis; format: ADME, organism-based; details: in vivo
[12] = Retention time of compound by HPLC anlaysis
[13] = Half life in Wistar rat at 50 mg/kg administered via oral gavage after 24 hrs by LC-MS/MS analysis; format: ADME, organism-based; details: in vivo
Rattus norvegicus [14] = experiment: Half life in Wistar rat assessed as 2-(4-(3,3-Difluoropyrrolidin-1-yl)phenyl)-5,7-difluoro-3-methylquinolin-4(1H)-one at 10 mg/kg administered via oral gavage after 24 hrs by LC-MS/MS analysis; format: ADME, organism-based; details: in vivo
[15] = Prodrug activation in Sprague-Dawley rat assessed as 2-(4-(3,3-difluoropyrrolidin-1-yl)phenyl)-5,7-difluoro-3-methylquinolin-4(1H)-one formation in urine at 50 mg/kg, po via gavage up to 9 hrs by HPLC analysis; format: organism-based; details: in vivo
[16] = Cmax in Wistar rat at 50 mg/kg administered via oral gavage after 24 hrs by LC-MS/MS analysis; format: ADME, organism-based; design: dose 50 mg/kg, route oral; details: in vivo
Rattus norvegicus [17] = experiment: Half life in Wistar rat assessed as 2-(4-(3,3-Difluoropyrrolidin-1-yl)phenyl)-5,7-difluoro-3-methylquinolin-4(1H)-one at 0.5 mg/kg, iv after 24 hrs by LC-MS/MS analysis; format: ADME, organism-based; details: in vivo
[18] = Drug metabolism in Sprague-Dawley rat assessed as M3 metabolite formation in bile at 50 mg/kg, po via gavage up to 9 hrs by HPLC analysis; format: ADME, organism-based; details: in vivo
[19] = AUC in Wistar rat at 50 mg/kg administered via oral gavage after 24 hrs by LC-MS/MS analysis; format: ADME, organism-based; design: time < 24 hr, dose 50 mg/kg, route oral; details: in vivo
Rattus norvegicus [20] = experiment: Oral bioavailability in Wistar rat assessed as 2-(4-(3,3-Difluoropyrrolidin-1-yl)phenyl)-5,7-difluoro-3-methylquinolin-4(1H)-one at 10 mg/kg administered via gavage after 24 hrs by LC-MS/MS analysis; format: ADME, organism-based; details: in vivo
Rattus norvegicus [21] = experiment: Volume of distribution in steady state in Wistar rat assessed as 2-(4-(3,3-Difluoropyrrolidin-1-yl)phenyl)-5,7-difluoro-3-methylquinolin-4(1H)-one at 0.5 mg/kg, iv after 24 hrs by LC-MS/MS analysis; format: ADME, organism-based; details: in vivo
[22] = Drug metabolism in Sprague-Dawley rat assessed as 2-(4-(3,3-difluoro-4-hydroxypyrrolidin-1-yl)phenyl)-5,7-difluoro-3-methylquinolin-4(1H)-one metabolite formation in urine at 50 mg/kg, po via gavage up to 9 hrs by HPLC analysis; format: ADME, organism-based; details: in vivo
[23] = Drug metabolism in Sprague-Dawley rat assessed as 2-(4-(3,3-difluoro-4-hydroxypyrrolidin-1-yl)phenyl)-5,7-difluoro-3-methylquinolin-4(1H)-one metabolite formation in bile at 50 mg/kg, po via gavage up to 9 hrs by HPLC analysis; format: ADME, organism-based; details: in vivo
[24] = AUC in Wistar rat at 10 mg/kg administered via oral gavage after 24 hrs by LC-MS/MS analysis; format: ADME, organism-based; design: dose 10 mg/kg, time < 24 hr, route oral; details: in vivo
[25] = Half life in Wistar rat at 10 mg/kg administered via oral gavage after 24 hrs by LC-MS/MS analysis; format: ADME, organism-based; details: in vivo
Rattus norvegicus [26] = experiment: Oral bioavailability in Wistar rat assessed as 2-(4-(3,3-Difluoropyrrolidin-1-yl)phenyl)-5,7-difluoro-3-methylquinolin-4(1H)-one at 50 mg/kg administered via gavage after 24 hrs by LC-MS/MS analysis; format: ADME, organism-based; details: in vivo
Rattus norvegicus [27] = experiment: Clearance in Wistar rat assessed as 2-(4-(3,3-Difluoropyrrolidin-1-yl)phenyl)-5,7-difluoro-3-methylquinolin-4(1H)-one at 0.5 mg/kg, iv after 24 hrs by LC-MS/MS analysis; format: ADME, organism-based; details: in vivo
[28] = Drug metabolism in Sprague-Dawley rat assessed as M3 metabolite formation in urine at 50 mg/kg, po via gavage up to 9 hrs by HPLC analysis; format: ADME, organism-based; details: in vivo
[29] = Cmax in Wistar rat at 10 mg/kg administered via oral gavage after 24 hrs by LC-MS/MS analysis; format: ADME, organism-based; design: dose 10 mg/kg, route oral; details: in vivo

Question: Which AUC (Rattus norvegicus [1]) does the source give for `CC(=O)Oc1c(C)c(-c2ccc(N3CCC(F)(F)C3)cc2)nc2cc(F)cc(F)c12` here?
Answer: 5400 ng·h/mL

Question: And the Drug metabolism [2]?
Answer: Metabolite_Detected

Question: What about the Drug metabolism [3] of the same molecule?
Answer: Metabolite_Detected

Question: What about the Cmax (Rattus norvegicus [4]) of the same molecule?
Answer: 610 ng/mL

Question: And the Cmax (Rattus norvegicus [5])?
Answer: 1400 ng/mL

Question: What about the AUC (Rattus norvegicus [6]) of the same molecule?
Answer: 16500 ng·h/mL

Question: What about the AUC (Rattus norvegicus [7]) of the same molecule?
Answer: 964 ng·h/mL

Question: What about the bioavailability [8] of the same molecule?
Answer: 63.8%

Question: What about the t1/2 (Rattus norvegicus [9]) of the same molecule?
Answer: 4.2 h

Question: And the bioavailability [10]?
Answer: 30.7%

Question: And the Drug metabolism [11]?
Answer: Metabolite_Detected

Question: What about the Retention time [12] of the same molecule?
Answer: 14.3 min

Question: What about the half-life [13] of the same molecule?
Answer: 2.3 h

Question: And the t1/2 (Rattus norvegicus [14])?
Answer: 3.8 h

Question: What about the Drug metabolism [15] of the same molecule?
Answer: Metabolite_Detected

Question: What about the Cmax [16] of the same molecule?
Answer: 4000 ng/mL

Question: What about the t1/2 (Rattus norvegicus [17]) of the same molecule?
Answer: 1.48 h

Question: And the Drug metabolism [18]?
Answer: Metabolite_Detected

Question: What about the AUC at 24 h [19] of the same molecule?
Answer: 29600 ng·h/mL

Question: What about the F (Rattus norvegicus [20]) of the same molecule?
Answer: 28%

Question: What about the Vdss (Rattus norvegicus [21]) of the same molecule?
Answer: 0.291 L/kg

Question: And the Drug metabolism [22]?
Answer: Metabolite_Detected

Question: And the Drug metabolism [23]?
Answer: Metabolite_Detected

Question: What about the AUC at 24 h [24] of the same molecule?
Answer: 12300 ng·h/mL

Question: And the half-life [25]?
Answer: 3.9 h

Question: What about the F (Rattus norvegicus [26]) of the same molecule?
Answer: 17.1%

Question: What about the CL (Rattus norvegicus [27]) of the same molecule?
Answer: 8.73 mL/min/kg

Question: What about the Drug metabolism [28] of the same molecule?
Answer: Metabolite_Detected

Question: What about the Cmax [29] of the same molecule?
Answer: 1700 ng/mL
